This note sets out measurements from PubChem BioAssay AID651717 (Broad Institute, 2012).

This test relates to mESC Bmi1-luciferase reporter, firefly/renilla ratio, 24 h. The experiment in a line: compounds raising Bmi1 reporter signal – mouse embryonic stem cells, luciferase, cherry-pick, esBAF inhibitor project, dose response (AID 651717).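 Note: luciferase knocked into Bmi1 locus with EF-1a renilla as cell number control; rising ratio signals esBAF inhibition which derepresses Bmi1.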
`COc1cc(CNc2ccc(S(N)(=O)=O)cc2)ccc1OCc1ccccc1F`: the AC40 is 1.87 µM.

As to `NNC(=O)c1nc2ccccc2s1`, the AC40 is 4.4 µM.

Consider `COc1cccc(/C=C2\SC(N3CCCC(C)C3)=NC2=O)c1OC` (stereo unspecified), for which the AC40 was 9.58 µM.

Turning to `CCn1c(COc2ccccc2C)nc2ccccc21`, the AC40 is 3.51 µM.

With `COc1ccc(CCC(=O)N2CCc3ccccc32)cc1`, the AC40 was 5.22 µM.

Take `CN(C)c1ccc(CSc2ccccc2)cc1`: the AC40 was 2.77 µM.

With `C=CCn1cccc(C(=O)Nc2ccc(F)cc2)c1=O`, the AC40 is 7.32 µM.

`O=C(Cc1ccc(Cl)cc1)c1ccccc1`: the AC40 was 1.84 µM.

As to `COc1ccc2c(CN(C)Cc3ccccc3)cc(=O)oc2c1`, the AC40 was 0.841 µM.

`O=C(CCc1ccccc1)Nc1ccc(F)cc1F`: the AC40 was 7.22 µM.

Turning to `COc1ccc(C(=O)CC(=O)c2ccccc2O)cc1OC`, the AC40 was 15.1 µM.

With `Cc1ccc(NC(=O)C2CCCN(C(=O)c3ccc(Cl)cc3)C2)cc1C` (stereo unspecified), the AC40 is 6.09 µM.

For `CC(C)C1C(=O)N(Cc2cn(CCC3OCCCO3)nn2)CCS(=O)(=O)N1Cc1ccc(-c2ccc(Cl)nc2)cc1` (stereo unspecified), the AC40 was 17.8 µM.

In the case of `CN(C)c1ccc(N=Cc2nc(-c3ccccc3)oc2OC(=O)c2cccc(Br)c2)cc1`, the AC40 was 1.2 µM.

In the case of `Clc1cccc2sc(N3CCCCC3)nc12`, the AC40 was 5.75 µM.

On to `Cc1ccc(CNC(=O)c2ccc(Cn3cc(-c4ccc(C)cc4)nc3-c3ccncc3)cc2)cc1`, for which the AC40 was 1.77 µM.

Turning to `Cn1c(/C(C#N)=C(\O)c2ccc(Cl)s2)nc2ccccc21`, the AC40 was 3.09 µM.

`CCCCc1nc2cc(C(=O)N3CCN(c4nc(C)cnc4C)CC3)ccc2o1`: the AC40 is 2.43 µM.

With `COc1ccc2[nH]c(=O)c(CNc3cccc(C)c3)cc2c1`, the AC40 was 12.9 µM.

In the case of `COc1cc(SC)ccc1C(=O)NCC1CCCCC1`, the AC40 is 3.03 µM.

In the case of `CCSc1nnc(NC(=O)c2ccc3nc[nH]c3c2)s1`, the AC40 is 12.7 µM.

Turning to `Cc1ccc(OCc2cnc(Cl)s2)c(C)c1`, the AC40 was 4.12 µM.

For the compound `COc1ccc(-c2ccc3oc(-c4ccsc4)cc(=O)c3c2)cn1`, the AC40 is 1.67 µM.

Regarding `CCS(=O)(=O)n1nc(-c2ccc(Cl)cc2)nc1SC`, the AC40 is 4.79 µM.

With `COc1ccc(F)cc1-c1cc(C(=O)Nc2cccnc2)[nH]n1`, the AC40 was 3.06 µM.

For the compound `O=C(c1cc2c(s1)-c1ccccc1OC2)N1CCCC1`, the AC40 was 1.71 µM.

`Cc1csc(N/N=C/c2ccccc2F)n1`: the AC40 was 1.01 µM.

In the case of `Nc1ccc(C(=O)OCc2nc3ccccc3[nH]2)cc1`, the AC40 was 19.1 µM.

Turning to `CC(=O)c1c(C)[nH]c(C(=O)OCc2ccc(Br)cc2)c1C`, the AC40 is 6.96 µM.

As for `CN1CCN(C(=O)C[C@@H]2CC[C@@H]3[C@H](COC[C@@H](O)CN3C(=O)Nc3ccc4c(c3)OCO4)O2)CC1`, the AC40 was 24.2 µM.

On to `c1ccc(Nc2cccc(Nc3ccccc3)n2)cc1`, for which the AC40 is 4.8 µM.

On to `O=C(Nc1ccc2oc(-c3ccccc3)nc2c1)c1cccs1`, for which the AC40 was 1.58 µM.

As to `CC(=O)c1ccc(NC(=O)c2cc(C)nc3ccccc23)cc1`, the AC40 is 3.55 µM.

`COc1ccc(N2CCN(C(=O)c3ccc(Cn4c(=S)[nH]c5ccc(N6CCOCC6)cc5c4=O)cc3)CC2)cc1`: the AC40 is 6.15 µM.

In the case of `Cc1nc(NCc2ccccc2)sc1C(=O)Nc1ccccc1`, the AC40 is 8.44 µM.

Take `Cc1cccc(-n2nnc(C(=O)Nc3ccc(F)cc3)c2N)c1`: the AC40 is 0.798 µM.

`Cc1cc(C)cc(N(CC(=O)Nc2ccc(-c3nc4ccc(C)cc4s3)cc2)S(C)(=O)=O)c1`: the AC40 was 4.11 µM.

Take `COc1ccc(/C=C/C(=O)Oc2cccc(/C=N/NC(=O)Cc3ccc(Br)cc3)c2)cc1`: the AC40 was 4.57 µM.

With `Cc1sc(NC(=O)C2CCCCC2C(=O)O)c(C(N)=O)c1-c1ccc(C(C)C)cc1` (stereo unspecified), the AC40 is 6.81 µM.

Take `O=C(NCc1ccccc1)c1cc(-c2cccc(O)c2)on1`: the AC40 was 12.6 µM.

For `CC(=O)c1ccc(OCc2ccccc2)c(C)c1O`, the AC40 is 9.35 µM.

Regarding `c1ccc(C2Oc3ccccc3C3CC(c4cccs4)=NN32)cc1` (stereo unspecified), the AC40 was 8.04 µM.

Turning to `CCc1c(C)sc(NC(=O)c2cccs2)c1C(N)=O`, the AC40 is 2.66 µM.

Consider `CC(Cc1cccs1)NC(=O)c1cccc(Cl)c1` (stereo unspecified), for which the AC40 is 2.76 µM.

With `COc1ccc(-c2csc(C(O)c3ccccc3)n2)cn1` (stereo unspecified), the AC40 was 9.65 µM.

With `COc1cc(Cl)ccc1OCc1cc(C(=O)N(C)Cc2cccc3cnccc23)no1`, the AC40 was 7.79 µM.

As to `O=C1/C(=C/c2cccc3ccccc23)CCCc2ccccc21`, the AC40 is 5.34 µM.

Take `COc1ccc(N2CCN(C(=O)C3Cc4ccccc4CN3C(=O)c3ccccc3)CC2)cc1` (stereo unspecified): the AC40 is 16.5 µM.

For `COc1ccc(/C=C2/SC(=O)N(CCNC(=O)CC(NC(C)=O)c3ccccc3)C2=O)cc1` (stereo unspecified), the AC40 is 10.2 µM.

On to `NC(=O)c1sc2nc(-c3cccs3)ccc2c1N`, for which the AC40 was 2.75 µM.

On to `CNc1oc(-c2ccc(OCc3ccccc3)cc2)nc1C#N`, for which the AC40 is 24.4 µM.

As for `O=C1Nc2ccccc2N=C(c2ccc3c(c2)OCO3)C1N(C(=O)c1ccc2ccccc2c1)C1CC1` (stereo unspecified), the AC40 is 1.26 µM.

With `CCCCNc1ccc2c(c1)C1CC2CCN1C(=O)OCc1ccccc1` (stereo unspecified), the AC40 was 4.73 µM.

For the compound `COc1ccc(Cc2c(-c3ccc(F)cc3)nc3ccc(Br)cn23)c(C)c1`, the AC40 was 3.51 µM.

Take `CC(=O)Oc1ccc2cc(-c3ccccc3)c(=O)oc2c1`: the AC40 is 4.46 µM.

Take `CCN(CC)c1ccc2cc(C(=O)c3cccs3)c(=O)oc2c1`: the AC40 is 11.6 µM.

With `CC(C)(C)C(=O)N1CCN(c2nc3ccccc3s2)CC1`, the AC40 was 0.702 µM.

For the compound `COc1ccc(-c2noc(CCCC(=O)N3CCN(c4cc(C)ccc4C)CC3)n2)cc1`, the AC40 is 3.53 µM.

On to `O=c1c(-c2nc3ccccc3s2)cccn1Cc1ccc(Cl)cc1`, for which the AC40 is 3.09 µM.

Turning to `CC(=O)Nc1ccc(NC(=O)c2cc(-c3ccc(F)cc3C)n[nH]2)cc1`, the AC40 was 7.08 µM.

In the case of `CC1(C)C=Cc2cc(-c3coc4cc(O)cc(O)c4c3=O)cc(O)c2O1`, the AC40 is 4.93 µM.

For `COc1ccccc1C(=O)Nn1cnc2ccccc2c1=O`, the AC40 was 8.5 µM.

For the compound `Cc1ccc(-n2nnc(-c3cccnc3)n2)cc1`, the AC40 was 0.926 µM.

Consider `Cc1cccc(NC(=O)C2C3CCCCC32)c1` (stereo unspecified), for which the AC40 was 4.55 µM.

For the compound `O=C(O)c1ccc2c(c1)C(=O)N(CCc1c[nH]c3ccccc13)C2=O`, the AC40 is 5.77 µM.

Regarding `COc1cc(C2Nc3cc(Cl)c(S(N)(=O)=O)cc3S(=O)(=O)N2)ccc1OCc1ccccc1` (stereo unspecified), the AC40 is 3.48 µM.

`COc1cccc2sc(NC(=O)c3ccc(Br)s3)nc12`: the AC40 is 1.85 µM.

Consider `Cn1cccc1-c1nc2ccc(NC(=O)c3cccs3)cc2[nH]1`, for which the AC40 was 11.7 µM.

In the case of `COc1ccc(CCn2nnc3ccccc3c2=O)cc1OC`, the AC40 was 4.92 µM.

For the compound `CNc1cnc(-c2ccc(F)c(F)c2F)cn1`, the AC40 is 1.54 µM.

As for `Cc1cccc(NC(=O)c2cc(-c3cc(Cl)ccc3O)n[nH]2)c1`, the AC40 was 2.08 µM.

For `c1ccc(-c2ccc(-c3ccccc3)[nH]2)cc1`, the AC40 was 1.44 µM.

For `c1ccc(-c2cnnc(N3CCCCC3)n2)cc1`, the AC40 was 1.99 µM.

For the compound `COc1cccc(NC(=O)N2CCN(c3cccc(C)c3C)CC2)c1`, the AC40 is 4.88 µM.

Consider `Cc1ccc(C)c(OCc2cc(C(=O)N3CC[C@@H]4CCCC[C@H]4C3)no2)c1`, for which the AC40 was 7.9 µM.

For the compound `O=C(Nc1ccccn1)c1ccc(Cl)c(S(=O)(=O)N2CCCC2)c1`, the AC40 was 14.6 µM.

Take `Nc1cc2c(cc1Cl)-c1ccc(Cl)cc1C2`: the AC40 is 11.3 µM.

As for `O=C(Nc1ccc(F)cc1)c1ccccc1F`, the AC40 is 5.97 µM.

For `COc1ccc(NC(=O)c2csc3c2CCCC3)cc1`, the AC40 was 0.459 µM.

Turning to `OC(c1ccc(F)cc1)c1ncc(-c2ccc3ccccc3c2)[nH]1` (stereo unspecified), the AC40 is 10.9 µM.

In the case of `CC(C)c1ccc(/C=N/NC(=O)CCNC(=O)c2ccccc2)cc1`, the AC40 was 22.8 µM.

Turning to `COc1ccc(Cl)cc1C(=O)NNC(=O)c1cccs1`, the AC40 was 4.75 µM.

As for `CC(=O)Oc1ccc(-c2csc(Nc3ccc(Cl)cn3)n2)cc1`, the AC40 was 2.19 µM.

`Cc1ccc(Nc2nc(-c3cccnc3)cs2)cc1Cl`: the AC40 is 0.961 µM.

With `CCC(C)(C)C1CCc2[nH]nc(C(=O)NC3CCCCC3)c2C1` (stereo unspecified), the AC40 is 6.44 µM.

In the case of `COc1ccc(-c2cc(C(=O)N3CCN(c4ccccc4)CC3)no2)cc1`, the AC40 is 5.94 µM.

For the compound `CN(C)c1ccc(-c2ccc3oc(-c4ccsc4)cc(=O)c3c2)cn1`, the AC40 is 2.73 µM.

For `COc1ccc2c(c1)nc(-c1cccc(Br)c1)c(=O)n2C(c1ccccn1)c1nc2ccccc2[nH]1` (stereo unspecified), the AC40 was 2.94 µM.

On to `CC(=O)c1ccc(OCc2cc(C(=O)N(C)Cc3ccccn3)no2)cc1`, for which the AC40 was 6.33 µM.

Turning to `COc1cc2ccccc2cc1C(=O)NC1CCCC1`, the AC40 is 8.82 µM.

`Cc1ccc(OCc2cc(C(=O)NC(C)Cc3cccnc3)no2)cc1C` (stereo unspecified): the AC40 is 1.8 µM.

`COc1ccc(Cl)c(-c2cc(C(=O)Nc3ccccc3)[nH]n2)c1`: the AC40 was 0.423 µM.

Consider `Cc1cccc(NC(=O)CCCc2ccccc2)c1`, for which the AC40 was 9.57 µM.

Take `C=CCNc1nc(NCc2ccc(NC(C)=O)cc2)c2sc(-c3ccccc3)cc2n1`: the AC40 was 0.635 µM.

Take `Cc1ccc(/C(N)=N/OC(=O)CCc2ccccc2)cc1`: the AC40 was 11 µM.

Take `Nc1cccc(N=[N+]([O-])c2cccc(N)c2)c1`: the AC40 is 2.11 µM.

`Nc1ccccc1/C=C/c1ccccc1N`: the AC40 is 2.4 µM.

For `O=C(Nc1ccc(Cl)c(Cl)c1)c1ccccc1NC(=O)C1CC=CCC1C(=O)O` (stereo unspecified), the AC40 is 7.6 µM.

As for `c1ccc(-c2cc3ccccc3[nH]2)cc1`, the AC40 was 5.17 µM.

Turning to `Cc1cc2oc(=O)cc(CN3CCC(C)CC3)c2c(C)c1Cl`, the AC40 was 4.55 µM.

Turning to `Cc1ccc(Nc2ncnc3sc(C)c(C)c23)cc1`, the AC40 is 3.76 µM.

Take `CC(C)c1ccc(CNNC(=O)c2ccccc2)cc1`: the AC40 is 2.18 µM.

In the case of `Cc1ccc(OCc2cc(C(=O)N(C)CCc3ccccn3)no2)cc1C`, the AC40 was 2.28 µM.

As to `Cc1ccccc1-c1nnc(-c2cccc3ccccc23)o1`, the AC40 is 0.85 µM.

As for `CCn1cnc2cc(NCc3ccccc3Cl)ccc21`, the AC40 is 3.92 µM.

For `Nc1ccc2c(c1)Cc1cc(N)c(Cl)cc1-2`, the AC40 is 3.41 µM.
